Data set [1] has as its target T1, Histone-lysine N-methyltransferase EHMT2 (Homo sapiens, UniProt Q96KQ7).
T1 sequence (Q96KQ7 whole entry): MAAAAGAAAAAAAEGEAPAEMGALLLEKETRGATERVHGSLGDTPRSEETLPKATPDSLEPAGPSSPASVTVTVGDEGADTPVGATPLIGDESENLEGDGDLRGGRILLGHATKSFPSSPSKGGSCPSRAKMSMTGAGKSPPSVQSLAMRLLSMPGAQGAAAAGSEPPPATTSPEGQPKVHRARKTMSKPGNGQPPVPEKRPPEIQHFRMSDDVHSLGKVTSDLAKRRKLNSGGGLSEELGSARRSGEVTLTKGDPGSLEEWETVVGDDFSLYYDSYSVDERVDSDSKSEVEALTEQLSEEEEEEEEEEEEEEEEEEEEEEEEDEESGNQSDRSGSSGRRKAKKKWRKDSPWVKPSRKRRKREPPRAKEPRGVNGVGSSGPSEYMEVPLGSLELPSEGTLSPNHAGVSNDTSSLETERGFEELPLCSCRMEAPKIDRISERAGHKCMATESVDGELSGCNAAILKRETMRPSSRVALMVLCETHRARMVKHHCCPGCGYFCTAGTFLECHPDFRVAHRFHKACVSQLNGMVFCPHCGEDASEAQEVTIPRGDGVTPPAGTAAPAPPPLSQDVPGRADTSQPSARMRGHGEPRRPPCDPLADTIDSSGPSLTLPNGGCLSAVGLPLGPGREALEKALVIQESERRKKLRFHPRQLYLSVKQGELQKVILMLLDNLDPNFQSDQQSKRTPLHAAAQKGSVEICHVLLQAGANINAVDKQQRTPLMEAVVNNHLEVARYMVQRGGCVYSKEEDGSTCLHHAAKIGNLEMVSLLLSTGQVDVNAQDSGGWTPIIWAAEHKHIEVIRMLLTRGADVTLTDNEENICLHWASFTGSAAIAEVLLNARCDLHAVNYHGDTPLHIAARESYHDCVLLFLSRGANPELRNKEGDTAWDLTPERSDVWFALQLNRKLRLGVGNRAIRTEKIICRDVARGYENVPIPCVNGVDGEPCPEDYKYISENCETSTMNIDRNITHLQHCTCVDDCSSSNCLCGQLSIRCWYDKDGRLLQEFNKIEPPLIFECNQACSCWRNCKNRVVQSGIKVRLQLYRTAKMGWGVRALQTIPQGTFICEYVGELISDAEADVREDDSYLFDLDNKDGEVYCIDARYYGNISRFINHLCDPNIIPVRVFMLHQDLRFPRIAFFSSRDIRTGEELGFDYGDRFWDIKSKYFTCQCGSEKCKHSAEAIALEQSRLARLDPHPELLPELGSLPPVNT
Nature of the data set: Inhibition of G9a (unknown origin).

Data set [2] concerns the target DNA (cytosine-5)-methyltransferase 1 (Homo sapiens, UniProt P26358). In words: Inhibition of DNMT1 (unknown origin).
The target in data set [3] is von Hippel-Lindau disease tumor suppressor/Histone-lysine N-methyltransferase EHMT2 (Homo sapiens, UniProt Q96KQ7+P40337). In words: PROTAC activity at G9a/VHL in human 22Rv1 cells assessed as induction of G9a degradation at 1 uM incubated for 24 hrs by Western blot analysis. The format is cell-based.
For data set [4], the target named is von Hippel-Lindau disease tumor suppressor/Histone-lysine N-methyltransferase EHMT1 (Homo sapiens, UniProt Q9H9B1+P40337). Nature of the data set: PROTAC activity at GLP/VHL in human 22Rv1 cells assessed as induction of GLP degradation at 1 uM incubated for 24 hrs by Western blot analysis. The format is cell-based. On the technique in general: A western blot detects proteins with antibodies after separation by electrophoresis.

The subject of a further data set is PANC-1. Nature of the data set: Antiproliferative activity against human PANC-1 cells assessed as reduction in cell growth incubated for 24 hrs by MTT assay. The format is functional, cell-based. The following applies: PANC-1, 24 h. On the technique in general: Formazan colour is commonly taken as a measure of viable cells.
Data set [5] can be described thus: Cmax in mouse at 25 mg/kg, ip. The settings on record: in vivo. The format is ADME, organism-based.
For a further data set, the system named is A549. In words: Antiproliferative activity against human A549 cells assessed as reduction in cell viability measured after 72 hrs by MTT assay. It counts as functional, cell-based. The following applies: A549, 72 h.
The target in data set [6] is T2, Histone-lysine N-methyltransferase EHMT1/EHMT2 (Homo sapiens, UniProt Q9H9B1+Q96KQ7).
T2 sequence (Q9H9B1 whole entry): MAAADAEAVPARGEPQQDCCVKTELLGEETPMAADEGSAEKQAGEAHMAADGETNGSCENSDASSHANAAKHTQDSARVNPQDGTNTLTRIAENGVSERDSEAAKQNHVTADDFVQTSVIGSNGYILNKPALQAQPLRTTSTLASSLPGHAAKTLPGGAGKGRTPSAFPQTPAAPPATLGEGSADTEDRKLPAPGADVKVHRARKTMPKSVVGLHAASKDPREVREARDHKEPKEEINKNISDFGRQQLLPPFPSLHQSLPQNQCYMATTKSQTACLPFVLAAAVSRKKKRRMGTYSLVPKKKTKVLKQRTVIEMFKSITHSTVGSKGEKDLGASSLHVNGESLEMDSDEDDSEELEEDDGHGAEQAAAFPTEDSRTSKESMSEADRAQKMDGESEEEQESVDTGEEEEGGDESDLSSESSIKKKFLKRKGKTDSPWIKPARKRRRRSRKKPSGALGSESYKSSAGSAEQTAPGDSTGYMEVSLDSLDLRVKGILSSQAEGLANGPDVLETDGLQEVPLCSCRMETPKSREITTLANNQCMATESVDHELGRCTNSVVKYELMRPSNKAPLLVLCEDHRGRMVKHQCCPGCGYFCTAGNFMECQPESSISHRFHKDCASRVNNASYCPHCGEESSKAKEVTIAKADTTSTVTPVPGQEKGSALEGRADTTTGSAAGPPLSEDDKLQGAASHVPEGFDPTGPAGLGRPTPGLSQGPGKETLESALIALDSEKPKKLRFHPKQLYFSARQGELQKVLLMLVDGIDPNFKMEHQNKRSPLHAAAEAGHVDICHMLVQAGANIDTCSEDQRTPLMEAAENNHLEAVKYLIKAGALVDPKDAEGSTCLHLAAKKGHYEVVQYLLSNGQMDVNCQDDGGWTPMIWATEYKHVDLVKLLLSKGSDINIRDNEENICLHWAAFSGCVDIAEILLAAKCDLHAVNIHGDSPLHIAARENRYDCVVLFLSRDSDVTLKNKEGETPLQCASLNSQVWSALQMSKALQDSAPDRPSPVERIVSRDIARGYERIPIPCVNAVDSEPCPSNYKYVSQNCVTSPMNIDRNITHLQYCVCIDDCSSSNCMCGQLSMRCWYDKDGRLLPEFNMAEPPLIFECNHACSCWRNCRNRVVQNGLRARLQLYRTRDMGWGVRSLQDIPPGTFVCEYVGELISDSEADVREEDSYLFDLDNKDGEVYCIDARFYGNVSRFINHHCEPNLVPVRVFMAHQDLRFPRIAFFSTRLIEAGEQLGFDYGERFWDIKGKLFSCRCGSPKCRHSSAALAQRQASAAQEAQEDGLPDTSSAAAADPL
T2 sequence (Q96KQ7 whole entry): T1 sequence (Q96KQ7 whole entry)
Nature of the data set: Inhibition of G9a/GLP in human MDA-MB-231 cells assessed as reduction in H3K9 dimethylation incubated for 3 days by Western blotting analysis. It counts as cell-based.

A further data set relates to MCF7. In words: Antiproliferative activity against human MCF7 cells assessed as reduction in cell growth measured after 72 hrs by MTT assay. The format is functional, cell-based. The settings on record: MCF7, 72 h.
Another data set concerns K562. Nature of the data set: Antiproliferative activity against human K562 cells assessed as reduction in cell growth measured after 72 hrs by MTT assay. It counts as functional, cell-based. The settings on record: K562, 72 h.

A value given as a limit tells only on which side of the number the result lay.

DNA (cytosine-5)-methyltransferase 1, sequence (P26358 whole entry): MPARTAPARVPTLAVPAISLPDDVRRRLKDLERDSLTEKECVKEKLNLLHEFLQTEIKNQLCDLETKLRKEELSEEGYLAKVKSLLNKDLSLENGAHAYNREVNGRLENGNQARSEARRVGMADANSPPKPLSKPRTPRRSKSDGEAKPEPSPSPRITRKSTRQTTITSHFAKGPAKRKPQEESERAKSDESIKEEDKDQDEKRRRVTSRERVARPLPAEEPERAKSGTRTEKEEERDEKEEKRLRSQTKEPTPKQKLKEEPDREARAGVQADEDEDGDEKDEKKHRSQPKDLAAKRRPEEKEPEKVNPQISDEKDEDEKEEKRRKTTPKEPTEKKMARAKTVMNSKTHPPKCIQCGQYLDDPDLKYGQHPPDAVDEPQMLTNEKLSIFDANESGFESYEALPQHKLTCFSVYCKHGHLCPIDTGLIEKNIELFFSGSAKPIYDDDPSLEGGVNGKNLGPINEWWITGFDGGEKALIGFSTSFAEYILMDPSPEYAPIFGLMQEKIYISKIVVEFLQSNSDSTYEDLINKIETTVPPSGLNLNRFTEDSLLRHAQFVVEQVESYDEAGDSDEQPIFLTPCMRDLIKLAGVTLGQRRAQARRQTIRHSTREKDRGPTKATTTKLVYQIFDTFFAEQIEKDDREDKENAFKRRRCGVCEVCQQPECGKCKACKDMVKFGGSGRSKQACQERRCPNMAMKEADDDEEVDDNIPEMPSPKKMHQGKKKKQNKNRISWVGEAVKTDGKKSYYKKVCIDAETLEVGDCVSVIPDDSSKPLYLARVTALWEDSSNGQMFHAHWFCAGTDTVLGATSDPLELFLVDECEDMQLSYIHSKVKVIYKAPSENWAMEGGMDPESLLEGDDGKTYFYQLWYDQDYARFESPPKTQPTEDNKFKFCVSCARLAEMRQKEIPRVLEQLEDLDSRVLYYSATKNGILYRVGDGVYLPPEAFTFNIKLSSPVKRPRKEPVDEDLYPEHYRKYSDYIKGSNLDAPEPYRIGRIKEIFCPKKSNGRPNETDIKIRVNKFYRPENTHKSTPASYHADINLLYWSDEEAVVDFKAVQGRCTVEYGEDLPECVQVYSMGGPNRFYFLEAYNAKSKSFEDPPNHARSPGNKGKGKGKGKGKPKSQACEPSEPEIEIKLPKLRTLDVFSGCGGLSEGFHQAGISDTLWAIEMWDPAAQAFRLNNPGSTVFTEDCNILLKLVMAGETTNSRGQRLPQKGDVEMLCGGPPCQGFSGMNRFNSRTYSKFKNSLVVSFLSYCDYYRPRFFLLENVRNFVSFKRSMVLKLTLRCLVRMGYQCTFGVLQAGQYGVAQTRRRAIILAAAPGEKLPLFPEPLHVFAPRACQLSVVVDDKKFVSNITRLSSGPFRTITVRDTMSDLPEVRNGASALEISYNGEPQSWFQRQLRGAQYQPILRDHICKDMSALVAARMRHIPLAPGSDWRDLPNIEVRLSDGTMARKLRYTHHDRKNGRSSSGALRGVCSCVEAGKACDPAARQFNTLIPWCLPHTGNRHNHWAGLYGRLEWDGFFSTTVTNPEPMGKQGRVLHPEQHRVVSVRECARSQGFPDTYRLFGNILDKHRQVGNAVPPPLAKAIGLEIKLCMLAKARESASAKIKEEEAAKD
von Hippel-Lindau disease tumor suppressor/Histone-lysine N-methyltransferase EHMT1, sequence (P40337 whole entry, one chain of several): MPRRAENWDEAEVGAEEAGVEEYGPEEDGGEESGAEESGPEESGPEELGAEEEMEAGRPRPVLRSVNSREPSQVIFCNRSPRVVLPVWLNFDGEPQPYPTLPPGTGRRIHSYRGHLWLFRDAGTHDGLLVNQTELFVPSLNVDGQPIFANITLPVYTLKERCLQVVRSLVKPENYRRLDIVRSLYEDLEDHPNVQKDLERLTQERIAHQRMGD
von Hippel-Lindau disease tumor suppressor/Histone-lysine N-methyltransferase EHMT2, sequence (P40337 whole entry, one chain of several): as above

As a reminder, the IC50 is the midpoint of a concentration-inhibition curve. In data set [1], `CCN(c1cc(-c2ccc(CN3CCOCC3)cc2)cc(C(=O)NCc2c(C)cc(C)[nH]c2=O)c1C)C1CCOCC1` [TAZEMETOSTAT] registered a half-inhibitory concentration (IC50) of 0.0029 µM. `CCN1C[C@H](NC(=O)c2cc3cc(Cl)ccc3[nH]2)[C@@H](OC)C1`: the concentration for half-maximal inhibition (IC50) in data set [2] was 0.0018 µM.

`COc1cc2nc(N3CCOCC3)nc(NC3CCN(C)CC3)c2cc1OC`: in data set [1], the IC50 is 0.013 µM. What is called DC50 is the midpoint of the concentration-degradation curve. Turning to `COc1cc2c(NC3CCN(CCCC(=O)NCCCCCCCCNc4cccc5c4C(=O)N(C4CCC(=O)NC4=O)C5=O)CC3)nc(C3CCCCC3)nc2cc1OCCCN1CCCC1` (configuration not stated), the DC50 in data set [3] is 0.1 µM; in data set [4], more than 10 µM. The EC50 is the concentration giving half of the maximal effect. With `COC(=O)c1ccc2c(c1)nc(NC(=O)c1ccccc1)n2CCCc1ccccc1`, in the data set with PANC-1, the EC50 is 5 µM. In [2], `Cc1ccc(SS(=O)(=O)c2ccc(C)cc2)cc1` registered a half-maximal inhibitory concentration (IC50) of 3.06 µM.

The term Cmax denotes the highest concentration seen after dosing. In [5], `Cc1c(C(=O)N[C@@H](CCC2CC2)C(=O)Nc2ccc(C#N)cc2)[nH]c2c1C(=O)CC(C)(C)C2` yielded a peak concentration (Cmax) of 42.4 µM. In data set [2], this compound showed a concentration for half-maximal inhibition (IC50) of 0.027 µM. Turning to `COc1ccc2c(NC3CCN(Cc4ccccc4)CC3)nc(NCCNC(=O)CCCCC(=O)NO)nc2c1`, the EC50 in the data set on A549 was 36.2 µM; in the data set with MCF7 it was 37.4 µM. In addition, the IC50 in data set [6] turned out to be 7.136 µM. For the compound `CN(C)C(=O)Nc1ccc(CN2CCC(C(O)(c3ccc(C(F)(F)F)cc3)c3ccc(C(F)(F)F)cc3)CC2)cc1`, the results for the concentration for half-maximal inhibition (IC50) (in data set [2]; with K562) were 6.5 µM and 1.7 µM, respectively. The compound `CCOc1ccc(Nc2cc(C)nc3ccc(Cl)cc23)cc1` had an IC50 in data set [1] of 0.067 µM.

Turning to `COc1cc2c(cc1OC)-c1c(C)c3cc(OC)c(OC)cc3c[n+]1CC2`, half-maximal inhibition in [2] (IC50) was put at 16.3 µM. `COc1cc2c(C3CCOCC3)nc(N)nc2cc1OCCCN1CCCC1` registered a 50% inhibitory concentration (IC50) in data set [1] of 0.126 µM.

(Values after ChEMBL document CHEMBL6087475, “Current and Emerging Approaches Targeting G9a for the Treatment of Various Diseases” (J Med Chem, 2025).)
